Test results taken from patent US6638960B2, “Halogenobenzimidazoles and their use as microbicides” (Bayer Aktiengesellschaft, priority 1995, dated 2003).

Tests used:
Phytophthora infestans = test: whole plant or invertebrate; format: in vivo; details: in Solanum lycopersicum, 72 h, read-out: Efficacy in % based on the untreated control at an active compound concentration of 50 ppm
Plasmopara viticola = test: Plasmopara test (vines)/protective; format: in vivo; details: 50 ppm active compound; vines sprayed protectively; evaluated 6 days after inoculation; 100% = no disease

Compound	pest or weed control at 50 ppm (Phytophthora infestans) [%]	other results
Cc1noc(C)c1S(=O)(=O)n1c(Br)nc2cc3c(cc21)OC(F)(F)O3	–	melting point: 130 to 134 °C
FC1(F)Oc2cc3nc(Br)[nH]c3cc2OC1(F)F	–	melting point: 170 to 174 °C
Clc1nc2cc3c(cc2[nH]1)OCCO3	–	melting point: 150 °C
FC1(F)Oc2cc3nc[nH]c3cc2OC1(F)F	–	melting point: 70 to 74 °C
CN(C)S(=O)(=O)n1c(Br)nc2cc3c(cc21)OC(F)(F)C(F)(F)O3	86	–
COc1ccc2c(c1)nc(Cl)n2S(=O)(=O)c1c(C)noc1C	96	–
Cc1onc(N)c1S(=O)(=O)n1c(Br)nc2cc3c(cc21)OC(F)(F)O3	95	–
Cc1noc(C)c1S(=O)(=O)n1c(Cl)nc2ccccc21	99	–
Cc1onc(N)c1S(=O)(=O)n1c(Cl)nc2cc3c(cc21)OC(F)(F)C(F)(F)O3	97	–
Cc1noc(C)c1S(=O)(=O)n1c(Br)nc2cc(Cl)c(Cl)cc21	95	–
Cc1noc(C)c1S(=O)(=O)n1c(Br)nc2cc3c(cc21)OC(F)(F)O3 [drawing 100]	99	–
Cc1noc(C)c1S(=O)(=O)n1c(Br)nc2cc3c(cc21)OC(F)(F)C(F)(F)O3 [drawing 101]	97	–
Cc1noc(C)c1S(=O)(=O)n1c(Cl)nc2cc3c(cc21)OC(F)(F)O3 [drawing 109]	99	–
Cc1noc(C)c1S(=O)(=O)n1c(Cl)nc2ccc(Sc3ccccc3)cc21 [drawing 110]	99	–
Cc1noc(C)c1S(=O)(=O)n1c(Br)nc2cc3c(cc21)OC(F)(F)O3 [drawing 114]	–	Efficacy in % based on the untreated control at an active compound concentration of 50 ppm (Plasmopara viticola): 99%
Cc1noc(C)c1S(=O)(=O)n1c(Br)nc2cc3c(cc21)OC(F)(F)C(F)(F)O3 [drawing 115]	–	Efficacy in % based on the untreated control at an active compound concentration of 50 ppm (Plasmopara viticola): 93%
Cc1noc(C)c1S(=O)(=O)n1c(Cl)nc2cc3c(cc21)OC(F)(F)O3 [drawing 118]	–	Efficacy in % based on the untreated control at an active compound concentration of 50 ppm (Plasmopara viticola): 100%
Cc1noc(C)c1S(=O)(=O)n1c(Cl)nc2ccc(Sc3ccccc3)cc21 [drawing 119]	–	Efficacy in % based on the untreated control at an active compound concentration of 50 ppm (Plasmopara viticola): 100%
